PubChem BioAssay (NCI)
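Cells were grown in 96-well plates and exposed to each compound for 48 hours at five concentrations; endpoints were interpolated linearly between bracketing concentrations, or set to the highest concentration if not reached. Here, GI50 denotes the concentration required for 50% inhibition of growth. TGI is the concentration that stops growth completely.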

Legend:
Experiment in all cases: inhibition of tumour cell growth, NCI panel, 48 h
[1] = tested on: SK-OV-3 ovarian
[2] = tested on: CAKI-1 renal
[3] = tested on: HOP-62 NSCLC
[4] = tested on: HL-60(TB) leukemia
[5] = tested on: NCI-H23 lung
[6] = tested on: A549 NSCLC
[7] = tested on: UACC-62 melanoma
[8] = tested on: LOX IMVI melanoma
[9] = tested on: HCT-116 colon
[10] = tested on: SN12C renal
[11] = tested on: OVCAR-3 ovarian
[12] = tested on: COLO 205 colon
[13] = tested on: HOP-92 NSCLC
[14] = tested on: MALME-3M melanoma
[15] = tested on: 786-0 renal
[16] = tested on: OVCAR-5 ovarian
[17] = tested on: DLD-1 colon
[18] = tested on: SNB-19 CNS
[19] = tested on: SR leukemia
[20] = tested on: SK-MEL-5 melanoma
[21] = tested on: NCI-H522 lung
[22] = tested on: SF-268 CNS
[23] = tested on: UO-31 renal
[24] = tested on: SW-620 colon
[25] = tested on: TK-10 renal
[26] = tested on: KM20L2 colon
[27] = tested on: RXF 393 renal
[28] = tested on: U251 CNS
[29] = tested on: SK-MEL-28 melanoma
[30] = tested on: MOLT-4 leukemia
[31] = tested on: UACC-257 melanoma
[32] = tested on: KM12 colon
[33] = tested on: SNB-78 CNS
[34] = tested on: M19-MEL melanoma
[35] = tested on: LXFL 529 NSCLC
[36] = tested on: SF-539 CNS
[37] = tested on: ACHN renal
[38] = tested on: IGROV1 ovarian
[39] = tested on: SF-295 CNS
[40] = tested on: HT29 colon
[41] = tested on: A498 renal
[42] = tested on: DMS 114 small cell lung
[43] = tested on: CCRF-CEM leukemia
[44] = tested on: NCI-H226 lung
[45] = tested on: RPMI-8226 leukemia
[46] = tested on: K-562 leukemia
[47] = tested on: M14 melanoma
[48] = tested on: OVCAR-8 ovarian
[49] = tested on: SK-MEL-2 melanoma
[50] = tested on: HCT-15 colon
[51] = tested on: HCC-2998 colon
[52] = tested on: NCI-H460 lung
[53] = tested on: OVCAR-4 ovarian
[54] = tested on: EKVX NSCLC
[55] = tested on: DMS 273 small cell lung
[56] = tested on: SNB-75 CNS
[57] = tested on: HOP-18 NSCLC

For `CCCCCC(=O)N[C@H]1CCc2cc(O)c(O)c(O)c2-c2ccc(SC)c(=O)cc21`, the TGI [1] was 66.2 µM, the TGI [2] was 91.6 µM and the TGI [3] was > 100 µM. The TGI [4] was 51.2 µM, the TGI [5] was 55 µM and the TGI [6] was > 100 µM. The TGI [7] was 83.4 µM, the TGI [8] was 44.3 µM and the TGI [9] was 33 µM. It also gave a TGI [10] of 42.7 µM, a TGI [11] of 99.6 µM and a TGI [12] of 44.5 µM. For the same compound, the TGI [13] was 90.9 µM, the TGI [14] was > 100 µM and the TGI [15] was > 100 µM. For the same compound, the TGI [16] was > 100 µM, the TGI [17] was 40.6 µM and the TGI [18] was > 100 µM. For the same compound, the TGI [19] was 68.8 µM, the TGI [20] was 75.5 µM and the TGI [21] was 54.5 µM. The TGI [22] was > 100 µM, the TGI [23] was > 100 µM and the TGI [24] was 33.6 µM. The TGI [25] was > 100 µM, the TGI [26] was 53.7 µM and the TGI [27] was > 100 µM. The TGI [28] was > 73.8 µM, the TGI [29] was > 100 µM and the TGI [30] was 90.1 µM. For the same compound, the TGI [31] was > 75.3 µM, the TGI [32] was > 100 µM and the TGI [33] was > 100 µM. It also gave a TGI [34] of 53.1 µM, a TGI [35] of 48.7 µM and a TGI [36] of 45.3 µM. For the same compound, the TGI [37] was > 100 µM, the TGI [38] was > 100 µM and the TGI [39] was 54.1 µM. For the same compound, the TGI [40] was > 87.1 µM, the TGI [41] was 64.1 µM and the TGI [42] was 24 µM. The TGI [43] was > 76.9 µM, the TGI [44] was 72.6 µM and the TGI [45] was > 100 µM. The TGI [46] was > 49.9 µM, the TGI [47] was 36.7 µM and the TGI [48] was > 59.8 µM. The TGI [49] was 72.4 µM, the TGI [50] was 42.9 µM and the TGI [51] was > 79 µM. The TGI [52] was > 100 µM, the TGI [53] was 44.7 µM and the TGI [54] was > 100 µM. For the same compound, the TGI [55] was > 100 µM and the TGI [56] was 78.5 µM.
With `O=C([O-])c1cc(I)cc(I)c1[OH2+].O=C([O-])c1cc(I)cc(I)c1[OH2+].[Mn+2]` the GI50 [1] was 20 µM, the TGI [1] was 44.2 µM and the GI50 [3] was 35.2 µM. For the same compound, the TGI [3] was > 100 µM, the GI50 [4] was > 100 µM and the TGI [4] was > 100 µM. It also gave a GI50 [5] of 30.4 µM, a TGI [5] of 89.4 µM and a GI50 [6] of 56.4 µM. For the same compound, the TGI [6] was > 100 µM, the GI50 [7] was 45.7 µM and the TGI [7] was > 100 µM. The GI50 [8] was 46.2 µM, the TGI [8] was > 100 µM and the GI50 [9] was 36.7 µM. The TGI [9] was > 100 µM, the GI50 [10] was 18.9 µM and the TGI [10] was 42.9 µM. The GI50 [11] was 24 µM, the TGI [11] was 77.6 µM and the GI50 [12] was > 100 µM. The TGI [12] was > 100 µM, the GI50 [14] was 33.9 µM and the TGI [14] was > 100 µM. For the same compound, the GI50 [15] was 51 µM, the TGI [15] was > 100 µM and the GI50 [17] was > 100 µM. The TGI [17] was > 100 µM, the GI50 [18] was 29 µM and the TGI [18] was 87.7 µM. The GI50 [20] was > 100 µM, the TGI [20] was > 100 µM and the GI50 [21] was 22.2 µM. For the same compound, the TGI [21] was 69.2 µM, the GI50 [23] was 35.6 µM and the TGI [23] was > 100 µM. For the same compound, the GI50 [24] was 53.2 µM, the TGI [24] was > 100 µM and the GI50 [25] was 32.1 µM. The TGI [25] was > 100 µM, the GI50 [26] was > 100 µM and the TGI [26] was > 100 µM. For the same compound, the GI50 [27] was 17.8 µM, the TGI [27] was 40.2 µM and the GI50 [28] was 21.5 µM. For the same compound, the TGI [28] was 61.3 µM, the GI50 [29] was > 100 µM and the TGI [29] was > 100 µM. For the same compound, the GI50 [30] was > 100 µM, the TGI [30] was > 100 µM and the GI50 [31] was 18.8 µM. The TGI [31] was 43.1 µM, the GI50 [32] was 67.3 µM and the TGI [32] was > 100 µM. The GI50 [34] was 81.7 µM, the TGI [34] was > 100 µM and the GI50 [36] was 24.8 µM. It also gave a TGI [36] of 60 µM, a GI50 [37] of 20.3 µM and a TGI [37] of 59 µM. For the same compound, the GI50 [57] was > 100 µM, the TGI [57] was > 100 µM and the GI50 [38] was 19.4 µM. For the same compound, the TGI [38] was 49.4 µM, the GI50 [39] was 33.5 µM and the TGI [39] was > 100 µM. The GI50 [40] was 97.8 µM, the TGI [40] was > 100 µM and the GI50 [42] was 32 µM. The TGI [42] was > 100 µM, the GI50 [43] was > 100 µM and the TGI [43] was > 100 µM. For the same compound, the GI50 [44] was 33.7 µM, the TGI [44] was 74.1 µM and the GI50 [45] was > 100 µM. For the same compound, the TGI [45] was > 100 µM, the GI50 [46] was > 100 µM and the TGI [46] was > 100 µM. The GI50 [47] was 42.9 µM, the TGI [47] was > 100 µM and the GI50 [48] was 34.2 µM. For the same compound, the TGI [48] was > 100 µM, the GI50 [49] was 48.5 µM and the TGI [49] was > 100 µM. The GI50 [50] was > 100 µM, the TGI [50] was > 100 µM and the GI50 [52] was 64 µM. The TGI [52] was > 100 µM, the GI50 [54] was 72.3 µM and the TGI [54] was > 100 µM. The GI50 [55] was 37.7 µM, the TGI [55] was > 100 µM and the GI50 [56] was 60.1 µM. For the same compound, the TGI [56] was 99.8 µM.
